Data taken from patent US12448389B2, “BRM targeting compounds and associated methods of use” (Prelude Therapeutics Incorporated, priority 2020, dated 2025).

Key:
SMARCA2-HiBiT = target: T1, SMARCA2-HiBiT (Homo sapiens, UniProt P51531); test: SMARCA2 HiBiT degradation assay in HeLa cells; type: cell-based; settings: 18 hours incubation; for DC50: read-out: HeLa_HiBit-SM2 DC50; for Dmax: HeLa, read-out: HeLa-HiBit-SM2 Dmax (%)
T1 construct: SMARCA2-HiBiT knock-in Hela monoclonal cell (CS302366); host or cells: HeLa monoclonal knock-in line (CRISPR HiBiT knock-in at the endogenous locus, heterozygous)
Outline: (§1)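 HeLa monoclonal lines with heterozygous HiBiT knock-in were seeded at 2500 cells/well in EMEM with 10% FBS and treated with compound for 18 h at 37 °C. Remaining tagged protein was measured by Nano-Glo HiBiT lytic luminescence after 30–60 min at RT, and values came from curve fitting.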

SMARCA4-HiBiT = target: T2, SMARCA4-HiBiT (Homo sapiens, UniProt P51532); test: SMARCA4 HiBiT degradation assay in HeLa cells; type: cell-based; settings: 18 hours incubation; for DC50: read-out: HeLa-HiBit-SM4 DC50; for Dmax: HeLa, read-out: HeLa-HiBit-SM4 Dmax (%)
T2 construct: SMARCA4-HiBiT knock-in Hela monoclonal cell (CS3023226); host or cells: HeLa monoclonal knock-in line (CRISPR HiBiT knock-in at the endogenous locus, heterozygous)
Outline: as §1

T2 sequence (P51532 whole entry): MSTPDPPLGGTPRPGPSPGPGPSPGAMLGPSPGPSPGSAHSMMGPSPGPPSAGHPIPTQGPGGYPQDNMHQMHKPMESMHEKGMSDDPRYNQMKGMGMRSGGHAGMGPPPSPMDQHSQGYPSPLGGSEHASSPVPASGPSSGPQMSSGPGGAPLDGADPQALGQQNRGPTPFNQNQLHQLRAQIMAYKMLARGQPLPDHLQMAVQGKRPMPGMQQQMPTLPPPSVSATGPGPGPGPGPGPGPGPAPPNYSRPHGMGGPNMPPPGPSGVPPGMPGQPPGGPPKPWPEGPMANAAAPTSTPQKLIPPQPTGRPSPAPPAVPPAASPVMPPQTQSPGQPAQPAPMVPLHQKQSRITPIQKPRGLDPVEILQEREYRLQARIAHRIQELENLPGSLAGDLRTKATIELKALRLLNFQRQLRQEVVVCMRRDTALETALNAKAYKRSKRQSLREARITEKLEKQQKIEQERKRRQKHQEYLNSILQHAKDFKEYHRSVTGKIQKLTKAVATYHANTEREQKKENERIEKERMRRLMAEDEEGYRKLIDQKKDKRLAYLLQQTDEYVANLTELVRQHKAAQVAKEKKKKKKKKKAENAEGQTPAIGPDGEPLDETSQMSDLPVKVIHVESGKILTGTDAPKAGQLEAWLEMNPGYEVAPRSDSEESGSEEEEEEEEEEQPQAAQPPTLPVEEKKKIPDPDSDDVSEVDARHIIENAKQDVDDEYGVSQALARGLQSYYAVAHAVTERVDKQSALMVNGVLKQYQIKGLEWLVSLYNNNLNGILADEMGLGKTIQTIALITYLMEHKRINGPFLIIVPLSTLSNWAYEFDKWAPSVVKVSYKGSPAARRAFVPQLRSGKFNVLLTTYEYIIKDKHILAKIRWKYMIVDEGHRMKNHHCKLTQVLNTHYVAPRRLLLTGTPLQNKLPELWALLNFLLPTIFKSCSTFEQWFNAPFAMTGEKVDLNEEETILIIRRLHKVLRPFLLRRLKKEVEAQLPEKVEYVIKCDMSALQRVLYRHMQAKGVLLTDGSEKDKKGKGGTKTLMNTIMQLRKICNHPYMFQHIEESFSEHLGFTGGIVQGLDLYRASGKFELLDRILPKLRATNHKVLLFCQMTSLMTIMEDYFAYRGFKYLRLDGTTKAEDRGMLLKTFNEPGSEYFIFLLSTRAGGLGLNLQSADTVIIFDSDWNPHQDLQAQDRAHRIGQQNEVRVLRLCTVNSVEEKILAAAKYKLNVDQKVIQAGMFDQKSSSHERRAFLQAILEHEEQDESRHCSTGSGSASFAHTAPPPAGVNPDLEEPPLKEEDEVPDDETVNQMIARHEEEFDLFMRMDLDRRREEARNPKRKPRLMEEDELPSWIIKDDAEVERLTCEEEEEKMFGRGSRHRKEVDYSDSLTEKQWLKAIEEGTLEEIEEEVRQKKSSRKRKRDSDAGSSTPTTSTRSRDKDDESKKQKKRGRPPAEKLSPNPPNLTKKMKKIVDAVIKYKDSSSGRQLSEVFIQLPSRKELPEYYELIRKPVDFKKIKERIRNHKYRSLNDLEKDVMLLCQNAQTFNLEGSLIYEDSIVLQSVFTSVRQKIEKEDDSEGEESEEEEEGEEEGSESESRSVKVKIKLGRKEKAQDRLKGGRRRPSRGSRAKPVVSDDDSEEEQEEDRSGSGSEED
T1 sequence (P51531 whole entry): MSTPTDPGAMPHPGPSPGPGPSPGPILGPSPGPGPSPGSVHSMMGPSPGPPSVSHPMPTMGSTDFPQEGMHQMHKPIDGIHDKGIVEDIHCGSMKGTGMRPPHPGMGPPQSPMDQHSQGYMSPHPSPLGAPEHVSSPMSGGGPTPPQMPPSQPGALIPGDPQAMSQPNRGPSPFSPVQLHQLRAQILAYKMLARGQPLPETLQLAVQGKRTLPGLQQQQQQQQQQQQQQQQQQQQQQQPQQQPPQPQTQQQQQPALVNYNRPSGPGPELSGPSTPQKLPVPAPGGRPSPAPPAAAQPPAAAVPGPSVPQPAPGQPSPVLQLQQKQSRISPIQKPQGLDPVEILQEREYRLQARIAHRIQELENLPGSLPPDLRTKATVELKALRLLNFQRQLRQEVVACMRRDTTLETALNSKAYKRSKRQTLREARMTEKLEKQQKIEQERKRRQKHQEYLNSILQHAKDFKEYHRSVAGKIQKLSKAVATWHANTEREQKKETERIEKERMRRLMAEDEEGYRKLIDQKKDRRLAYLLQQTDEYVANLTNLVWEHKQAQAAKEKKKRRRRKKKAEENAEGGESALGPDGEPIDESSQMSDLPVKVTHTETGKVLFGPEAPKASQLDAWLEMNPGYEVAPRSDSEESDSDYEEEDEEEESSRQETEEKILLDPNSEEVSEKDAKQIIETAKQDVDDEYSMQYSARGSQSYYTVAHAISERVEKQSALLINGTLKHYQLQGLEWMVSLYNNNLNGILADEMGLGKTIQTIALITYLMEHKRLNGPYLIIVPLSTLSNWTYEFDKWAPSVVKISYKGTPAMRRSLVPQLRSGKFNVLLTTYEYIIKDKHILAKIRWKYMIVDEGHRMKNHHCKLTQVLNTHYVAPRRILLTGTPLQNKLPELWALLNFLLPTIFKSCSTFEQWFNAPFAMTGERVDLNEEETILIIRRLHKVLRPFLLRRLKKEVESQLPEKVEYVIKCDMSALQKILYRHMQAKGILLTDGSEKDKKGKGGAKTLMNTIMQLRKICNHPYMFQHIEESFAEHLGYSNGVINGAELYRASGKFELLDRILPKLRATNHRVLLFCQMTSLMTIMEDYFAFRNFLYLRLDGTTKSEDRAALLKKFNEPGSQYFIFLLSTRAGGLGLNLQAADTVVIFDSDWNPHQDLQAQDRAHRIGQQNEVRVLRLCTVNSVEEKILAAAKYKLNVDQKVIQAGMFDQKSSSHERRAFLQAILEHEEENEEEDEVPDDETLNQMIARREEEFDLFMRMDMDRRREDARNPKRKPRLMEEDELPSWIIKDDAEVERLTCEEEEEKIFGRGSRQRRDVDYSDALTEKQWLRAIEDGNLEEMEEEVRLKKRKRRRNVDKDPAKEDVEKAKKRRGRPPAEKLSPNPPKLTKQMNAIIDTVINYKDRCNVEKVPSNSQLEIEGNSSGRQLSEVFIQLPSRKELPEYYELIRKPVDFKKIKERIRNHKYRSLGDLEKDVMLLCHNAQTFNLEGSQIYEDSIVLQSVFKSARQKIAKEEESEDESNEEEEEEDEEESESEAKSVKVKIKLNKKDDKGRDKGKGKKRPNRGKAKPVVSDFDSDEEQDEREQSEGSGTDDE

Structure (SMILES)	DC50 (SMARCA2-HiBiT)	Dmax (SMARCA2-HiBiT)	DC50 (SMARCA4-HiBiT)	Dmax (SMARCA4-HiBiT)	HeLa-HiBit-SM4 Dmax (%) (SMARCA4-HiBiT)
O=C1CCC(N2C(=O)c3ccc(N4CC[C@H](CN5C[C@@H]6[C@H](C5)[C@H]6CN5CCN6c7cc(-c8cc(F)ccc8O)nnc7NC[C@H]6C5)[C@@H](F)C4)cc3C2=O)C(=O)N1 (stereo partly drawn) [Example 277, 2-(2,6-dioxopiperidin-3-yl)-5-((3R,4R)-3-fluoro-4-(((1R,5S,6R)-6-(((S)-2-(5-fluoro-2-hydroxyphenyl)-5,6,6a,7,9,10-hexahydro-8H-pyrazino[1′,2′:4,5]pyrazino[2,3-c]pyridazin-8-yl)methyl)-3-azabicyclo[3.1.0]hexan-3-yl)methyl)piperidin-1-yl)isoindoline-1,3-dione]	< 10 nM	> 85%	< 10 nM		C (C=50%<Dmax<=75%)
O=C1CCC(N2Cc3ccc(N4CCC(CN5CCN(C(=O)N6CCN7c8cc(-c9ccccc9O)nnc8NC[C@H]7C6)CC5C(F)(F)F)CC4)cc3C2=O)C(=O)N1 (stereo partly drawn) [Example 102, 3-(6-(4-((4-((S)-2-(2-hydroxyphenyl)-6,6a,7,8,9,10-hexahydro-5H-pyrazino[1′,2′:4,5]pyrazino[2,3-c]pyridazine-8-carbonyl)-2-(trifluoromethyl)piperazin-1-yl)methyl)piperidin-1-yl)-1-oxoisoindolin-2-yl)piperidine-2,6-dione]	< 10 nM	> 85%	< 10 nM	75 to 85%	
CC1CC(N2CCN3c4cc(-c5ccccc5O)nnc4NC[C@H]3C2)CCN1CCCC1CCN(c2cccc3c2C(=O)N(C2CCC(=O)NC2=O)C3=O)CC1 (stereo partly drawn) [Example 126, 2-(2,6-dioxopiperidin-3-yl)-4-(4-(3-(4-((S)-2-(2-hydroxyphenyl)-5,6,6a,7,9,10-hexahydro-8H-pyrazino[1′,2′:4,5]pyrazino[2,3-c]pyridazin-8-yl)-2-methylpiperidin-1-yl)propyl)piperidin-1-yl)isoindoline-1,3-dione]	< 10 nM	> 85%	< 10 nM	75 to 85%	
C[C@H]1CN2c3cc(-c4ccccc4O)nnc3NC[C@H]2CN1C[C@H]1[C@@H]2CN(CC3CCN(c4ccc5c(c4)C(=O)N(C4CCC(=O)NC4=O)C5)CC3)C[C@@H]21 (stereo partly drawn) [Example 54, 3-(6-(4-(((1R,5S,6r)-6-(((6aS,9S)-2-(2-hydroxyphenyl)-9-methyl-5,6,6a,7,9,10-hexahydro-8H-pyrazino[1′,2′:4,5]pyrazino[2,3-c]pyridazin-8-yl)methyl)-3-azabicyclo[3.1.0]hexan-3-yl)methyl)piperidin-1-yl)-1-oxoisoindolin-2-yl)piperidine-2,6-dione]	< 10 nM	75 to 85%	10 to 100 nM	50 to 75%	
O=C1CCC(N2C(=O)c3cccc(N4CCC(CCCN5C6CCC5CC(N5CCN7c8cc(-c9ccccc9O)nnc8NC[C@H]7C5)C6)CC4)c3C2=O)C(=O)N1 (stereo partly drawn) [Example 125, 2-(2,6-dioxopiperidin-3-yl)-4-(4-(3-(3-((S)-2-(2-hydroxyphenyl)-5,6,6a,7,9,10-hexahydro-8H-pyrazino[1′,2′:4,5]pyrazino[2,3-c]pyridazin-8-yl)-8-azabicyclo[3.2.1]octan-8-yl)propyl)piperidin-1-yl)isoindoline-1,3-dione]	< 10 nM	75 to 85%	< 10 nM	75 to 85%	

The remaining lines, values ahead:

DC50 (SMARCA2-HiBiT)	Dmax (SMARCA2-HiBiT)	DC50 (SMARCA4-HiBiT)	Dmax (SMARCA4-HiBiT)	HeLa-HiBit-SM4 Dmax (%) (SMARCA4-HiBiT)	Structure (SMILES)
< 10 nM	> 85%	< 10 nM	75 to 85%		O=C1CCC(N2C(=O)c3ccc(N4CCO[C@H](CN5C[C@@H]6[C@H](C5)[C@H]6CN5CCN6c7cc(-c8ccccc8O)nnc7NC[C@H]6C5)C4)cc3C2=O)C(=O)N1 (stereo partly drawn) [Example 52, 2-(2,6-dioxopiperidin-3-yl)-5-((R)-2-(((1R,5S,6S)-6-(((S)-2-(2-hydroxyphenyl)-5,6,6a,7,9,10-hexahydro-8H-pyrazino[1′,2′:4,5]pyrazino[2,3-c]pyridazin-8-yl)methyl)-3-azabicyclo[3.1.0]hexan-3-yl)methyl)morpholino)isoindoline-1,3-dione]
< 10 nM	75 to 85%	< 10 nM	50 to 75%		O=C1CCC(N2C(=O)c3ccc(N4CCC(NC56CC(CN7CCN8c9cc(-c%10ccccc%10O)nnc9NC[C@H]8C7)(C5)C6)CC4)cc3C2=O)C(=O)N1 (stereo partly drawn) [Example 135, 2-(2,6-dioxopiperidin-3-yl)-5-(4-((3-(((S)-2-(2-hydroxyphenyl)-5,6,6a,7,9,10-hexahydro-8H-pyrazino[1′,2′:4,5]pyrazino[2,3-c]pyridazin-8-yl)methyl)bicyclo[1.1.1]pentan-1-yl)amino)piperidin-1-yl)isoindoline-1,3-dione]
< 10 nM	75 to 85%	< 10 nM	75 to 85%		C[C@@H](CN1CCC(N2CCN3c4cc(-c5ccccc5O)nnc4NC[C@H]3C2)CC1)Nc1cccc2c1C(=O)N(C1CCC(=O)NC1=O)C2=O (stereo partly drawn) [Example 71, 2-(2,6-dioxopiperidin-3-yl)-4-(((S)-1-(4-((S)-2-(2-hydroxyphenyl)-5,6,6a,7,9,10-hexahydro-8H-pyrazino[1′,2′:4,5]pyrazino[2,3-c]pyridazin-8-yl)piperidin-1-yl)propan-2-yl)ammo)isoindoline-1,3-dione]
< 10 nM	> 85%	< 10 nM	> 85%		O=C1CCC(N2C(=O)c3ccc(N4CCC(CN[C@H]5C[C@@H](CN6CCN7c8cc(-c9ccccc9O)nnc8NC[C@H]7C6)C5)CC4)cc3C2=O)C(=O)N1 (stereo partly drawn) [Example 78, 2-(2,6-dioxopiperidin-3-yl)-5-(4-((((1R,3s)-3-(((S)-2-(2-hydroxyphenyl)-5,6,6a,7,9,10-hexahydro-8H-pyrazino[1′,2′:4,5]pyrazino[2,3-c]pyridazin-8-yl)methyl)cyclobutyl)amino)methyl)piperidin-1-yl)isoindolme-1,3-dione]
< 10 nM	75 to 85%	< 10 nM	50 to 75%		O=C1CCC(N2C(=O)c3ccc(N4CCC(CN5CC6CC6(CN6CCN7c8cc(-c9ccccc9O)nnc8NC[C@H]7C6)C5)CC4)cc3C2=O)C(=O)N1 (stereo partly drawn) [Example 172, 2-(2,6-dioxopiperidin-3-yl)-5-[4-[[1-[[(10S)-4-(2-hydroxyphenyl)-1,5,6,8,12-pentazatricyclo[8.4.0.02,7]tetradeca-2,4,6-trien-12-yl]methyl]-3-azabicyclo[3.1.0]hexan-3-yl]methyl]piperidin-1-yl]isoindole-1,3-dione]
< 10 nM	75 to 85%	< 10 nM	50 to 75%		O=C1CCC(N2C(=O)c3ccc(N4CC[C@H](CN5CCC(CN6CCN7c8cc(-c9ccccc9O)nnc8NC[C@H]7C6)CC5)[C@H](F)C4)cc3C2=O)C(=O)N1 (stereo partly drawn) [Example 185, 2-(2,6-dioxopiperidin-3-yl)-5-[(3S,4R)-3-fluoro-4-[[4-[[(10S)-4-(2-hydroxyphenyl)-1,5,6,8,12-pentazatricyclo[8.4.0.02,7]tetradeca-2(7),3,5-trien-12-yl]methyl]piperidin-1-yl]methyl]piperidin-1-yl]isoindole-1,3-dione]
< 10 nM	> 85%	< 10 nM	75 to 85%		O=C1CCC(N2Cc3cc(N4CCC(CNC56CCC(C(=O)N7CCN8c9cc(-c%10ccccc%10O)nnc9NC[C@H]8C7)(CC5)CC6)CC4)ccc3C2=O)C(=O)N1 (stereo partly drawn) [Example 84, 3-(5-(4-(((4-((S)-2-(2-hydroxyphenyl)-6,6a,7,8,9,10-hexahydro-5H-pyrazino[1 ′,2′:4,5]pyrazino[2,3-c]pyridazine-8-carbonyl)bicyclo[2.2.2]octan-1-yl)amino)methyl)piperidin-1-yl)-1-oxoisoindolin-2-yl)piperidine-2,6-dione]
